Structures can show the parent of a compound that is named as a salt.
What was measured:
SHP2 = SHP2 (Homo sapiens (Human), UniProt Q06124); assay: Shp2 Biochemical Assay (DiFMUP conversion); conditions: for IC50: 10 pM SHP2, activating peptide pIRS1, DiFMUP substrate, average where more than one data point
Method: SHP2 activity was monitored by measuring the conversion of the surrogate substrate 6,8-difluoromethylumbelliferyl phosphate (DiFMUP) to the fluorescent product, 6,8-difluoromethylumbelliferone (DiFMU).
SHP2 was pre-incubated with test compounds and the activating peptide pIRS1 (H2N-LN(pY)IDLDLV-(PEG)8-LST(pY)ASINFQK-amide) for 30 min, prior to addition of the 6,8-difluoromethylumbelliferyl phosphate (DiFMUP), (Thermo Fisher D6567). Final assay concentrations were 10 pM SHP2, 0.25 μM pIRS1 peptide, 50 μM DiFMUP, 25 mM Bis-Tris propane, pH 7.0, 150 mM NaCl, 0.05% (v/v) Tween-20, 0.5 mM TCEP and 5% (v/v) DMSO. Rates of reaction were then measured over 30 min by monitoring fluorescence on a BMG Pherastar reader at excitation 360 nm/emission 450 nm. IC50 values were calculated from the normalized dose-response plots using four parameter logistic curve fit.

pERK = assay: Cellular pERK Inhibition Assay (phospho-p44/42 MAPK sandwich ELISA); type: cell-based; conditions: Homo sapiens; HCC827 cells, 0.5 hours compound treatment; average where more than one data point
Method: Cellular pERK Inhibition Assay
HCC827 cells (ATCC, Manassas, USA) were seeded into 96-well plates at a density of 1×10^5 cells/well in RPMI medium supplemented with 10% FBS and incubated 24 h. Compounds were diluted first in DMSO and then into serum-free medium, before being added to cells in triplicate to give a final concentration of 0.1% DMSO. Plates were incubated at 37° C. for 0.5 hours in a humidified atmosphere of 5% CO2 in air.
Following compound treatment, medium was removed and cells were lysed by adding 50 μL of lysis buffer (Cell Signalling Technology, Beverly, USA) to each well. Plates were then incubated at room temperature for 25 minutes with shaking. pERK levels were measured in lysates using the PathScan® phospho-p44/42 MAPK (Thr202/Tyr204) sandwich ELISA (Cell Signalling Technology, Beverly, USA) as per kit instructions. Briefly, 50 μL of cell lysate was added to 50 μL of ELISA sample diluent in a 96-well ELISA plate and incubated overnight at 4° C. Following washing, 100 μL of detection antibody was added per well and the plates incubated for 1 hour at 37° C. Plates were washed again and incubated at 37° C. for 30 minutes with 100 μl of HRP-linked secondary antibody per well. After final washing, 100 μL per well of TMB substrate was added and plates incubated at 37° C. to develop colour. Colour development was stopped by the addition of 100 μL per well of stop solution. Plates were read at 450 nm on a SpectraMax Gemini reader (Molecular Devices, Uckfield, UK).
The average signal from blank wells (no cells added) was subtracted from the signals from each sample well. Levels of pERK were then expressed as “percent of control”, using DMSO treated samples as control. Dose response curves were generated using GraphPad Prism Version 6 (GraphPad Software, La Jolla, USA) and fitted using the four parameter logistic curve fit.

Row | IC50 (SHP2) [µM] | IC50 (pERK) [µM] | inhibition at 0.01 µM (SHP2; at 0.010 μM, read-out: SHP2 % inhibition at given concentration) [%] | inhibition at 0.003 µM (SHP2; at 0.0030 μM, read-out: SHP2 % inhibition at given concentration) [%] | SMILES
1 | 0.011 | 0.0063 | – | – | Cn1cc2c(Cl)c(-c3n[nH]c4nc(N5CCC6(CC5)CC(F)(F)C[C@H]6N)c(CO)nc34)ccc2n1 [Example 7, {6-[(1R)-1-amino-3,3-difluoro-8-azaspiro[4.5]decan-8-yl]-3-(4-chloro-2-methyl-2H-indazol-5-yl)-1H-pyrazolo[3,4-b]pyrazin-5-yl}methanol]
2 | 0.02 | 0.074 | – | – | Cc1nc2c(-c3ccc4nn(C)cc4c3Cl)n[nH]c2nc1N1CCC2(CC1)C[C@@H](C(F)(F)F)C[C@H]2N [Example 1, (1R,3R)-8-[3-(4-chloro-2-methyl-2H-indazol-5-yl)-5-methyl-1H-pyrazolo[3,4-b]pyrazin-6-yl]-3-(trifluoromethyl)-8-azaspiro[4.5]decan-1-amine hydrochloride]
3 | 0.0071 | 0.0041 | – | – | Cn1nc2ccc(-c3n[nH]c4nc(N5CCC6(CC5)C[C@H](F)C[C@H]6N)c(CO)nc34)c(Cl)c2c1Cl [Example 20, {6-[(1R,3S)-1-amino-3-fluoro-8-azaspiro[4.5]decan-8-yl]-3-(3,4-dichloro-2-methyl-2H-indazol-5-yl)-1H-pyrazolo[3,4-b]pyrazin-5-yl}methanol]
4 | 0.0056 | 0.04 | – | – | Cc1nc2c(-c3ccc4nn(C)cc4c3Cl)n[nH]c2nc1N1CCC2(CC1)COC[C@H]2N [Example 3, (4S)-8-[3-(4-chloro-2-methyl-2H-indazol-5-yl)-5-methyl-1H-pyrazolo[3,4-b]pyrazin-6-yl]-2-oxa-8-azaspiro[4.5]decan-4-amine]
5 | 0.0076 | 0.046 | – | – | CCn1cc2c(Cl)c(-c3n[nH]c4nc(N5CCC6(CC5)COC[C@H]6N)c(C)nc34)ccc2n1 [Example 5, (4S)-8-[3-(4-chloro-2-ethyl-2H-indazol-5-yl)-5-methyl-1H-pyrazolo[3,4-b]pyrazin-6-yl]-2-oxa-8-azaspiro[4.5]decan-4-amine]
6 | 0.018 | 0.012 | – | – | Cc1nc2c(-c3ccc4nn(C)cc4c3Cl)n[nH]c2nc1N1CCC2(CC1)CO[C@@H](C)[C@H]2N [Example 6, (3S,4S)-8-[3-(4-Chloro-2-methyl-2H-indazol-5-yl)-5-methyl-1H-pyrazolo[3,4-b]pyrazin-6-yl]-3-methyl-2-oxa-8-azaspiro[4.5]decan-4-amine]
7 | 0.017 | 0.081 | – | – | Cc1nc2c(-c3ccc4nn(C)cc4c3Cl)n[nH]c2nc1N1CCC2(CC1)CC(F)(F)C[C@H]2N [Example 2, (1R)-8-[3-(4-chloro-2-methyl-2H-indazol-5-yl)-5-methyl-1H-pyrazolo[3,4-b]pyrazin-6-yl]-3,3-difluoro-8-azaspiro[4.5]decan-1-amine hydrochloride]
8 | 0.007 | 0.0062 | – | – | Cn1nc2ccc(-c3n[nH]c4nc(N5CCC6(CC5)CC(F)(F)C[C@H]6N)c(CO)nc34)c(Cl)c2c1Cl [Example 16, {6-[(1R)-1-amino-3,3-difluoro-8-azaspiro[4.5]decan-8-yl]-3-(3,4-dichloro-2-methyl-2H-indazol-5-yl)-1H-pyrazolo[3,4-b]pyrazin-5-yl}methanol]

The remaining lines, values behind:

Row | SMILES | IC50 (SHP2) [µM] | IC50 (pERK) [µM] | inhibition at 0.01 µM (SHP2; at 0.010 μM, read-out: SHP2 % inhibition at given concentration) [%] | inhibition at 0.003 µM (SHP2; at 0.0030 μM, read-out: SHP2 % inhibition at given concentration) [%]
9 | Cc1nc2c(-c3ccc4ncc(N(C)C)nc4c3Cl)n[nH]c2nc1N1CCC2(CC1)CO[C@@H](C)[C@H]2N [Example 10, (3S,4S)-8-{3-[5-chloro-3-(dimethylamino)quinoxalin-6-yl]-5-methyl-1H-pyrazolo[3,4-b]pyrazin-6-yl}-3-methyl-2-oxa-8-azaspiro[4.5]decan-4-amine] | 0.019 | 0.017 | – | –
10 | C[C@@H]1OCC2(CCN(c3nc4[nH]nc(-c5ccc6nn(C)c(Cl)c6c5Cl)c4nc3CO)CC2)[C@@H]1N [Example 8, {6-[(3S,4S)-4-amino-3-methyl-2-oxa-8-azaspiro[4.5]decan-8-yl]-3-(3,4-dichloro-2-methyl-2H-indazol-5-yl)-1H-pyrazolo[3,4-b]pyrazin-5-yl}methanol] | 0.0071 | 0.0036 | – | –
11 | Cc1nc2c(-c3ccc4nn(C)c(Cl)c4c3Cl)n[nH]c2nc1N1CCC2(CC1)COC[C@H]2N [Example 4, (4S)-8-[3-(3,4-dichloro-2-methyl-2H-indazol-5-yl)-5-methyl-1H-pyrazolo[3,4-b]pyrazin-6-yl]-2-oxa-8-azaspiro[4.5]decan-4-amine] | 0.0053 | – | – | –
12 | Cc1nc2c(-c3ccc4ncc(N5CCC5)nc4c3Cl)n[nH]c2nc1N1CCC2(CC1)CO[C@@H](C)[C@H]2N [Example 25, (3S,4S)-8-{3-[3-(azetidin-1-yl)-5-chloroquinoxalin-6-yl]-5-methyl-1H-pyrazolo[3,4-b]pyrazin-6-yl}-3-methyl-2-oxa-8-azaspiro[4.5]decan-4-amine] | 0.024 | 0.028 | – | –
13 | Cc1nc2c(-c3ccc4ncc(N5CCOCC5)nc4c3Cl)n[nH]c2nc1N1CCC2(CC1)CO[C@@H](C)[C@H]2N [Example 26, (3S,4S)-8-{3-[5-chloro-3-(morpholin-4-yl)quinoxalin-6-yl]-5-methyl-1H-pyrazolo[3,4-b]pyrazin-6-yl}-3-methyl-2-oxa-8-azaspiro[4.5]decan-4-amine] | 0.028 | 0.018 | – | –
14 | COc1cnc2ccc(-c3n[nH]c4nc(N5CCC6(CC5)COC[C@H]6N)c(C)nc34)c(Cl)c2n1 [Example 13, (4S)-8-[3-(5-chloro-3-methoxyquinoxalin-6-yl)-5-methyl-1H-pyrazolo[3,4-b]pyrazin-6-yl]-2-oxa-8-azaspiro[4.5]decan-4-amine] | – | 0.095 | 35 | –
15 | Cc1nc2c(-c3cccc(Cl)c3F)n[nH]c2nc1N1CCC2(CC1)CO[C@@H](C)[C@H]2N [Example 19, (3S,4S)-8-[3-(3-chloro-2-fluorophenyl)-5-methyl-1H-pyrazolo[3,4-b]pyrazin-6-yl]-3-methyl-2-oxa-8-azaspiro[4.5]decan-4-amine] | 0.0098 | 0.1 | – | –
16 | C[C@@H]1OCC2(CCN(c3nc4[nH]nc(-c5ccc6ncc(N(C)C)nc6c5Cl)c4nc3CO)CC2)[C@@H]1N [Example 17, {6-[(3S,4S)-4-amino-3-methyl-2-oxa-8-azaspiro[4.5]decan-8-yl]-3-[5-chloro-3-(dimethylamino)quinoxalin-6-yl]-1H-pyrazolo[3,4-b]pyrazin-5-yl}methanol] | 0.014 | 0.0053 | – | –
17 | C[C@@H]1OCC2(CCN(c3nc4[nH]nc(-c5cccc(Cl)c5F)c4nc3CO)CC2)[C@@H]1N [Example 23, {6-[(3S,4S)-4-amino-3-methyl-2-oxa-8-azaspiro[4.5]decan-8-yl]-3-(3-chloro-2-fluorophenyl)-1H-pyrazolo[3,4-b]pyrazin-5-yl}methanol] | 0.0054 | 0.0058 | – | –
18 | C[C@@H]1OCC2(CCN(c3nc4[nH]nc(-c5cccc(Cl)c5Cl)c4nc3CO)CC2)[C@@H]1N [Example 18, {6-[(3S,4S)-4-amino-3-methyl-2-oxa-8-azaspiro[4.5]decan-8-yl]-3-(2,3-dichlorophenyl)-1H-pyrazolo[3,4-b]pyrazin-5-yl}methanol] | – | 0.0049 | – | 37
19 | C[C@@H]1OCC2(CCN(c3nc4[nH]nc(-c5ccccc5Cl)c4nc3CO)CC2)[C@@H]1N [Example 24, {6-[(3S,4S)-4-amino-3-methyl-2-oxa-8-azaspiro[4.5]decan-8-yl]-3-(2-chlorophenyl)-1H-pyrazolo[3,4-b]pyrazin-5-yl}methanol] | 0.011 | 0.0064 | – | –

— patent publication US12458640B2, “Pyrazolo[3,4-b]pyrazine SHP2 phosphatase inhibitors” (OTSUKA PHARMACEUTICAL CO., LTD., priority 2019, dated 2025)
